In series [1] the test system is human primary adult dermal fibroblasts and human primary adult dermal keratinocytes. The following applies: 24 h.
Experimental: To determine suitable dosing of Centella asiatica extract and mandelic acid, human primary adult dermal fibroblasts and human primary adult dermal keratinocytes were purchased from ZenBio (https://www.zen-bio.com/, Durham, NC) and plated as per the provided ZenBio protocols in the recommended media from ZenBio.
Approximately 10k cells were plated per well in each well of a 96-well plate. […] Centella asiatica extract concentrations ranged from 0.00025% to 0.25%, in 2× steps. […] After 24 hours of treatment, an alamar blue assay was performed. The plate was then read in an Envision plate reader with 560 nm excitation and 590 nm emission filters to determine cell viability.
For series [2], the system named is human keratinocytes. The series is described as follows: in vitro gene expression analysis (RNA sequencing) in keratinocytes. The class given is cell-based. Particulars: 72 hrs, mandelic acid 0.05%. The text has this: Genes were annotated using the Reactome Database.
The mark [3] stands for this setting: human keratinocytes grown to confluence, Centella asiatica extract 0.005%, combination same concentrations, vs untreated cells.

The structures appear in SMILES notation.

The results in this text go back to patent US20250352464A1, “TOPICAL COMPOSITIONS AND METHODS FOR TREATING DERMATOPOROSIS” (GALDERMA HOLDING SA, priority 2023, published 2025).

Consider `O=C(O)C(O)c1ccccc1` (stereo not drawn) [Mandelic Acid, mandelic acid], for which the “highest concentration not resulting in cytotoxicity” value in series [1] is on record as 0.05%. For the same molecule, in series [2] (setting [3]), the “Modulation of Gene Expression (Fold Change): CEBPB” value was −2.45 Fold Change, the “Modulation of Gene Expression (Fold Change): HIST1H2BD” value worked out at 0.55 Fold Change, the “Modulation of Gene Expression (Fold Change): HIST1H2BG” value is on record as 0.45 Fold Change and the “Modulation of Gene Expression (Fold Change): HIST1H3D” value is listed as −0.23 Fold Change. For the same molecule, in series [2] (setting [3]), the “Modulation of Gene Expression (Fold Change): HIST1H4E” value is 0.60 Fold Change, the “Modulation of Gene Expression (Fold Change): HIST1H4H” value is −0.54 Fold Change, the “Modulation of Gene Expression (Fold Change): IL1B” value is given as 1.73 Fold Change and the “Modulation of Gene Expression (Fold Change): IL8” value is given as −1.46 Fold Change. Also, in series [2] (setting [3]), the “Modulation of Gene Expression (Fold Change): TNF” value is on record as −2.69 Fold Change, the “Modulation of Gene Expression (Fold Change): UBB” value was −3.87 Fold Change, the “Modulation of Gene Expression (Fold Change): UBC” value was −1.09 Fold Change and the “Modulation of Gene Expression (Fold Change): UBE2C” value is recorded as 0.51 Fold Change. For the same molecule, the “expression of p15 (CDKN2B)” value in series [2] (human keratinocytes, Centella 0.005%, FIG. 5) was “upregulate”. In series [2] (human keratinocytes, Centella 0.005%, FIGS. 4A-4G), the “pro-inflammatory gene expression (MMP2, HSPA8, CSF2RA, CXCL1, IL2RB, NFKBIA, PTG52)” value is given as “significantly downregulated”.
